Assay [1] addresses T1, Beta-lactamase 1 (Bacillus cereus, UniProt P00809).
T1 sequence (P00809 whole entry): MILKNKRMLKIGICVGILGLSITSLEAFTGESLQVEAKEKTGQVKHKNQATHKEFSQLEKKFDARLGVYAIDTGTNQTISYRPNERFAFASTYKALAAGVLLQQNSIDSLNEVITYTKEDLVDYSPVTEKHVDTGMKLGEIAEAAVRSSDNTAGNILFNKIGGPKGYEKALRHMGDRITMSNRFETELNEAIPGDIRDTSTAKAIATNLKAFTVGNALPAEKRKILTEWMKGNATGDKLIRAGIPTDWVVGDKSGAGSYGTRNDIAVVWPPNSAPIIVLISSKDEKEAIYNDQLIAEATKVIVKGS
As to the kind of experiment: Inhibition of Beta-lactamase of Bacillus cereus (class A enzyme) without pre-incubation.

Assay [2] addresses T1, Beta-lactamase 1. As to the kind of experiment: Tested for the ability to inhibit Beta-lactamase of Bacillus cereus (class A enzyme) with 10 minutes pre-incubation.

For orientation: IC50 means the point on the concentration scale where inhibition reaches its midpoint. High values mean lower potency, low ones higher potency.

Consider `C[C@@]1(CSc2nc3ccccc3s2)S[C@@H]2[C@@H](Cl)C(=O)N2[C@H]1C(=O)O`, for which the values for the IC50 on Beta-lactamase 1 [1] and on Beta-lactamase 1 [2] were more than 5 mM and more than 5000 µM, respectively.

On to `C[C@@]1(CSc2nc3ccccc3s2)S[C@@H]2[C@@H](Br)C(=O)N2[C@H]1C(=O)O`, for which the IC50 is more than 5 mM against Beta-lactamase 1 [1] and more than 5000 µM against Beta-lactamase 1 [2].

For `C[C@]1(CCl)[C@H](C(=O)O)N2C(=O)[C@H](Cl)[C@H]2S1(=O)=O`, the IC50 was 0.45 mM against Beta-lactamase 1 [1] and 70 µM against Beta-lactamase 1 [2].

Take `CC1(C)[C@H](C(=O)O)N2C(=O)[C@H](Cl)[C@H]2S1(=O)=O`: the IC50 against Beta-lactamase 1 [1] is 1.5 mM; against Beta-lactamase 1 [2], 200 µM.

With `C[C@@]1(CSc2nc3ccccc3s2)S[C@@H]2[C@@H](F)C(=O)N2[C@H]1C(=O)O`, the IC50 at Beta-lactamase 1 [1] is more than 5 mM; against Beta-lactamase 1 [2], more than 5000 µM.

With `C[C@]1(CCl)[C@H](C(=O)O)N2C(=O)C[C@H]2S1(=O)=O`, the IC50 at Beta-lactamase 1 [1] was determined as 0.25 mM; against Beta-lactamase 1 [2], 300 µM.

For the compound `C[C@]1(CCl)[C@H](C(=O)O)N2C(=O)[C@H](F)[C@H]2S1(=O)=O`, the concentration for half-maximal inhibition (IC50) against Beta-lactamase 1 [1] was more than 3 mM; at Beta-lactamase 1 [2] it was more than 3000 µM.

Turning to `C[C@]1(CCl)[C@H](C(=O)O)N2C(=O)[C@H](Br)[C@H]2S1(=O)=O`, the IC50 at Beta-lactamase 1 [1] came out at 3 mM; at Beta-lactamase 1 [2], 1000 µM.

Turning to `CC1(C)[C@H](C(=O)O)N2C(=O)C[C@H]2S1(=O)=O` [SULBACTAM], the IC50 was found to be 0.025 mM at Beta-lactamase 1 [1] and 25 µM on Beta-lactamase 1 [2].

These data come from ChEMBL document CHEMBL1150008, “Synthesis and -lactamase inhibitory evaluation of novel 6-halo-2-chloromethyl-2-methylpenam-3-carboxylic acids and their sulfones and 6-halo-2-mercaptobenzothiazolylmethyl-2-methylpenam-3-carboxylic acids” (Bioorg Med Chem Lett, 1995).
